Values after ≈ are worked out from the molar mass of the structure shown.
Experiment: Solubility of p-TSA in various solvents
Type: physicochemical
Conditions: thermodynamic from solid

- solubility (aqueous with cosolvent or surfactant or cyclodextrin, in 20% 7-sulfobutyl-ether-β-cyclodextrin (SBEβCD), n = 3): 17.6 mg/mL (≈ 103 mM)
- solubility (organic solvent or mixture, in Absolute ethanol, n = 3): 108 mg/mL (≈ 628 mM)
- solubility (organic solvent or mixture, in Dimethyl sulfoxide (DMSO), n = 3): 786 mg/mL (≈ 4590 mM)
- solubility (organic solvent or mixture, in Glycerol, n = 3): 28.4 mg/mL (≈ 166 mM)
- solubility (organic solvent or mixture, in Glycofurol 75, n = 3): 443 mg/mL (≈ 2590 mM)
- solubility (organic solvent or mixture, in Polyethylene glycol 400 (PEG-400), n = 3): 467 mg/mL (≈ 2720 mM)
- solubility (organic solvent or mixture, in Propylene glycol (PG), n = 3): 118 mg/mL (≈ 688 mM)
Structure (SMILES): Cc1ccc(S(N)(=O)=O)cc1 [p-TSA, p-Toluenesulfonamide]

From patent US10548862B2, “Topical formulation and method for preventing or treating acne” (Gongwin Biopharm Holdings Co., Ltd., priority 2017, dated 2020)
